For orientation: IC50 means the concentration that gives 50% inhibition. What is called melting point is the temperature of the solid-liquid transition.

In brackets after ≈: the same amount, converted by molar mass.

Data set [1] relates to S-480 colon adenocarcinoma. The arrangement: method as in PMID 1800632. The following applies: S-480 ref 60; cited from earlier work.
Data set [2] has as its system HeLa-S3 uterine cells. The arrangement: method as in PMID 1800632. The following applies: HeLa-S3 ref 60; cited from earlier work.
Data set [3] has as its system CEM/ADR5000 cells. As to the kind of experiment: Resazurin reduction assay (RRA), cytotoxicity. Format: cell-based, human. Particulars: for IC50: Homo sapiens, CEM/ADR5000, 72 h; for Degree of resistance (D.R.): ratio of IC50 CEM/ADR5000 vs CCRF-CEM.
Method: (§3) The RPMI-1640 medium was used for the culture of CCRF-CEM and CEM/ADR5000 cells whilst DMEM medium was used for carcinoma cells. The culture media were supplemented (complete medium) with 10% fetal bovine serum and 1% penicillin/streptomycin (Invitrogen, Eggenstein, Germany). […] To maintain the resistance phenotype of the resistant carcinoma cell lines such as MDA-MB-231/BCRP and HCT116 p53^−/−, and U87MG.ΔEGFR cells, the complete DMEM medium containing geneticin at 800 ng/ml and 400 µg/ml, respectively were used [41, 42].
(§4) Cells were cultured in a standard condition consisted of a humidified 5% CO2 atmosphere and an incubation temperature of 37 °C. The tested concentration ranges were 0.63—80 µg/mL for the botanicals and 0.78—100 µM for phytochemicals. The incubation time of the treated cells was 72 h, and the fluorescence was measured with Infinite M2000 Pro™ plate reader (Tecan, Crailsheim, Germany). The wavelengths used were 544 nm for the excitation and 590 nm for the emission. […] The degree of resistance (D.R.) was set as the ratio of the IC50 values of samples in the resistant cell line vs that of corresponding sensitive cell line. The selectivity index (S.I.) was the ratio of the IC50 value of AML12 hepatocytes vs. that of HepG2 cells [13, 48].
Data set [4] relates to SW480 colon cancer cells. The arrangement: method as in PMID 24018191. The following applies: SW480 ref 61; cited from earlier work.
Data set [5] deals with caspase 9 in CCRF-CEM cells. Kind of data set: Caspase-Glo assay. Format: cell-based, human. Particulars: 2 × IC50, 6 h. The method, then:
(§1) The activity of caspases in CCRF-CEM cells treated with BAL and the flavonolignan 2 was determined by Caspase-Glo assay. […] The whole was then incubated for 6 h (standard culture conditions) and the activity of caspases was detected by spectrophotometry as previously described.

For data set [6], the system named is caspase 8 in CCRF-CEM cells. Kind of data set: Caspase-Glo assay. The following applies: 2 × IC50, 6 h. Format: cell-based, human. The method, then: as §1
Data set [7] relates to 697 pre-B acute lymphoblastic leukemia cell line. Details: method as in PMID 23280566. The following applies: 697 pre-B ALL ref 59; cited from earlier work.
In data set [8] the test system is HCT116 p53+/+ cells. As to the kind of experiment: Resazurin reduction assay (RRA), cytotoxicity. Format: cell-based. The following applies: Homo sapiens, HCT-116, 72 h. Background: Alamar Blue is a resazurin reagent that responds to reducing activity.
From the text: (§5) In this work, 9 cancer cell lines with various drug resistance patterns as well as AML12 hepatocytes as normal control cell line were used. […] The AML12 hepatocytes were used for the comparison of the activities of the samples with HepG2 [40]. […] The RPMI-1640 medium was used for the culture of CCRF-CEM and CEM/ADR5000 cells whilst DMEM medium was used for carcinoma cells. The culture media were supplemented (complete medium) with 10% fetal bovine serum and 1% penicillin/streptomycin (Invitrogen, Eggenstein, Germany). […] To maintain the resistance phenotype of the resistant carcinoma cell lines such as MDA-MB-231/BCRP and HCT116 p53^−/−, and U87MG.ΔEGFR cells, the complete DMEM medium containing geneticin at 800 ng/ml and 400 µg/ml, respectively were used [41, 42].
as §4
Data set [9] relates to Tmolt3 leukemia cells. The arrangement: method as in PMID 1800632. Particulars: Tmolt3 ref 60; cited from earlier work.
Data set [10] concerns L-1210 leukemia cells. The arrangement: method as in PMID 1800632. The following applies: murine L-1210 ref 60; cited from earlier work.
The subject of data set [11] is TE-418 osteosarcoma cells. Details: method as in PMID 1800632. The following applies: TE-418 ref 60; cited from earlier work.
Data set [12] concerns MDA-MB-231-BCRP cells. Kind of data set: Resazurin reduction assay (RRA), cytotoxicity. Particulars: for IC50: Homo sapiens, MDA-MB-231/BCRP, 72 h.
Method: as §3, §4
The subject of data set [13] is KB nasopharynx cancer cells. Details: method as in PMID 1800632. The following applies: KB ref 60; cited from earlier work.
The subject of data set [14] is U87MG cells. As to the kind of experiment: Resazurin reduction assay (RRA), cytotoxicity. Format: cell-based. Particulars: Homo sapiens, U-87 MG, 72 h.
From the text: as §5, §4
Data set [15] concerns CCRF-CEM cells. As to the kind of experiment: Apoptosis by annexin V/PI staining and flow cytometry. Format: cell-based, human. The following applies: 2 x IC50, 24 h. The source says:
Afterward, apoptosis detection was undertaken with a fluorescein isothiocynate (FITC)-conjugated annexin V/PI assay kit (eBioscience™ Annexin V; Invitogen, San Diego, USA). The measurement was done using BD Accury C6 Flow Cytometer (BD Biosciences) under experimental conditions previously reported. The assays were done thrice independently with three repetitions each.
For orientation: Flow cytometry measures light scatter and fluorescence of single cells or particles in a stream.

The subject of data set [16] is CCRF-CEM cells. Kind of data set: Reactive oxygen species (ROS), H2DCFH-DA staining, flow cytometry. Format: cell-based, human. The method, then:
(§2) The modification of the MMP as well as the ROS levels after the application of BAL, and flavonolignan 2 at ¼ IC50, ½ IC50, IC50, and 2 × IC50 to CCRF-CEM cells (1 × 10^6) was performed by flow cytometry. DMSO was used as solvent control while valinomycin served as a positive control. The cells were incubated for 24 h and further stained for 30 min with JC-1 [45] and measured (1 × 10^4 cells) in an LSR-Fortessa FACS analyzer (Becton–Dickinson). For ROS determination, CCEF-CEM cells were similarly treated BAL, the flavonolignan 2, hydrogen peroxide (H2O2; positive control), DMSO (solvent control) as in the MMP analysis, then incubated for 24 h. They were further stained with H2DCFH-DA and measured (1 × 10^4 cells) in an LSR-Fortessa FACS analyzer.

In data set [17] the test system is MDA-MB-231-pcDNA cells. As to the kind of experiment: Resazurin reduction assay (RRA), cytotoxicity. Format: cell-based. Particulars: Homo sapiens, 72 h.
From the text: as §5, §4
Data set [18] deals with CCRF-CEM leukemia cells. Kind of data set: Resazurin reduction assay (RRA), cytotoxicity. Format: cell-based. The following applies: Homo sapiens, 72 h.
From the text: as §5, §4
Data set [19] relates to HCT116 p53−/− cells. Kind of data set: Resazurin reduction assay (RRA), cytotoxicity. Format: cell-based, human. Particulars: for IC50: Homo sapiens, HCT-116, HCT116 p53−/−, 72 h.
Method: as §3, §4
In data set [20] the test system is nine cancer cell lines. As to the kind of experiment: RRA cytotoxicity, summary over the panel. Format: cell-based, human. Particulars: number out of 9 cancer cell lines.
From the text: as §5
Cells were cultured in a standard condition consisted of a humidified 5% CO2 atmosphere and an incubation temperature of 37 °C. The tested concentration ranges were 0.63—80 µg/mL for the botanicals and 0.78—100 µM for phytochemicals. The incubation time of the treated cells was 72 h, and the fluorescence was measured with Infinite M2000 Pro™ plate reader (Tecan, Crailsheim, Germany). The wavelengths used were 544 nm for the excitation and 590 nm for the emission. […] The degree of resistance (D.R.) was set as the ratio of the IC50 values of samples in the resistant cell line vs that of corresponding sensitive cell line. […]
In data set [21] the test system is U87MG.ΔEGFR cells. Kind of data set: Resazurin reduction assay (RRA), cytotoxicity. The following applies: for IC50: Homo sapiens, U87MG.ΔEGFR, 72 h. Format: cell-based, human.
Method: as §3, §4
The test system of data set [22] is MB-9812 lung cancer cells. Details: method as in PMID 1800632. The following applies: MB-9812 ref 60; cited from earlier work.
In data set [23] the test system is HepG2 cells. As to the kind of experiment: Resazurin reduction assay (RRA), cytotoxicity. The following applies: Homo sapiens, HepG2, 72 h. Format: cell-based.
From the text: as §5, §4
Data set [24] deals with CCRF-CEM cells. As to the kind of experiment: Cell cycle distribution by flow cytometry (PI staining). Format: cell-based, human. The method, then: The modification of the cell cycle distribution of CCRF-CEM induced by the botanicals BAL, the flavonolignan 2, the control drug, doxorubicin, or the solvent control DMSO was determined by flow cytometry under the previously reported work conditions. BAL and compound 2 were applied to CCRF-CEM cells (1 ml; 1 × 10^6 cells) at their ¼ IC50, ½ IC50, IC50, and 2 × IC50 values. The whole was then incubated for 24 h as earlier indicated followed by the analysis of the cell cycle distribution with a BD Accury C6 Flow Cytometer (BD Biosciences, Heidelberg, Germany). Assays were performed three times in triplicates.

Data set [25] has as its system CCRF-CEM cells. As to the kind of experiment: Mitochondrial membrane potential (MMP), JC-1 staining, flow cytometry. Format: cell-based, human. Particulars: 2 × IC50, 24 h. The method, then:
as §2

The subject of data set [26] is AML12 hepatocytes. As to the kind of experiment: Resazurin reduction assay (RRA), cytotoxicity on normal hepatocytes. Format: cell-based. The following applies: for IC50: Mus musculus, AML12 normal hepatocytes, 72 h.
Method: as §3, §4
Data set [27] relates to A-549 lung carcinoma cells, MCF-7 breast cancer cells, and PC-3 prostate cancer cells. The following applies: three reported cancer cell lines ref Makong et al. [30]; cited from earlier work.
In data set [28] the test system is PC-3. Details: method as in PMID 31816856. Particulars: on PC-3 ref 30; cited from earlier work.

`COc1cc([C@H]2Oc3cc(-c4cc(=O)c5c(O)cc(O)cc5o4)ccc3O[C@@H]2CO)ccc1O` [Compound 2, hydnocarpin] had a melting point of 261 to 263 °C. In addition, in [1], the IC50 was 2.00 µg/mL (≈ 4.31 µM). In addition, the IC50 in data set [2] is 2.02 µg/mL (≈ 4.35 µM). Also, in data set [3], half-maximal inhibition (IC50) was put at 3.07 ± 0.18 µM and the “Degree of resistance (D.R.)” value turned out to be 0.72. Also, the IC50 in data set [4] is 20.3 µM. Moreover, the “increase of activity of caspase 9” value in data set [5] is 2.67 fold. Further, in data set [6], the “increase of activity of caspase 8” value came to 2.12 fold. The IC50 in data set [7] is 8.7 µM. This compound showed an IC50 in [8] of 11.4 ± 0.98 µM. Moreover, the IC50 in data set [9] was 32.94 µg/mL (≈ 70.9 µM). In addition, in data set [10], the IC50 was 3.65 µg/mL (≈ 7.86 µM). For the same compound, in data set [11], the IC50 was 2.14 µg/mL (≈ 4.61 µM). Further, the midpoint of inhibition in [12], the IC50, lay at 6.65 ± 0.24 µM. The “Degree of resistance (D.R.)” value in [12] (ratio of IC50 MDA-MB-231-BCRP vs MDA-MB-231-pcDNA) came out at 1.63. Moreover, the IC50 in data set [13] is 1.15 µg/mL (≈ 2.48 µM). Also, in data set [14], half-maximal inhibition (IC50) was put at 9.29 ± 0.73 µM. Moreover, in [15], the “Q2-LR: early apoptotic cells annexin (+)/PI (-)” value is recorded as 9.4 ± 0.8% and the “Q2-UR: annexin V (+)/PI (+) late apoptotic or necrotic cells” value was determined as 18.5 ± 1.3%. Moreover, the “ROS levels in treated cells” value in [16] (1/4 × IC50, 24 h) is on record as 6.00%. The “ROS levels in treated cells” value in data set [16] (2 × IC50, 24 h) amounted to 49.00%. The IC50 in data set [17] turned out to be 4.07 ± 0.37 µM. This compound gave an IC50 in data set [18] of 4.28 ± 0.31 µM. For the same compound, in data set [19], the IC50 was found to be 6.74 ± 0.33 µM. For the same compound, the “Degree of resistance (D.R.)” value in data set [19] (ratio of IC50 HCT116 p53−/− vs HCT116 p53+/+) is recorded as 0.59. Moreover, in [20], the “cancer cell lines with IC50 ≤ 10 μM” value is 8/9. The same compound had an IC50 in data set [21] of 5.42 ± 0.44 µM. The “Degree of resistance (D.R.)” value in data set [21] (ratio of IC50 U87.MGΔEGFR vs U87.MG) was 0.58. The IC50 in [22] is 8.18 µg/mL (≈ 17.6 µM). In data set [23], this compound registered an IC50 of 2.73 ± 0.19 µM. In addition, the “cells in sub-G0/G1 phase” value in [24] (1/4 × IC50, 24 h) is reported as 3.41 ± 0.2%. In data set [24] (2 × IC50, 24 h), the “cells in sub-G0/G1 phase” value was 38.40 ± 2.6%. In [25], the “Q1: cells with undamaged (intact) MMP” value turned out to be 10.4%; the “Q2: cells with MMP loss” value was 70.5%; the “cells with disrupted MMP (Q3 and Q4)” value came out at 19.1%. Besides, half-maximal inhibition in data set [26] (IC50) required 51.2 ± 3.2 µM.
On to `COc1cc([C@H]2Oc3c(OC)cc4ccc(=O)oc4c3O[C@@H]2CO)cc(OC)c1O` [Compound 6, cleomiscosin C], for which the melting point was 254 to 256 °C. For the same compound, in [3], the IC50 is greater than 100 µM and the “Degree of resistance (D.R.)” value is given as greater than 4.31. The “cytotoxic activity” value in data set [27] is “not active”. In [8], this compound yielded an IC50 greater than 100 µM. Moreover, the IC50 in data set [12] is greater than 100 µM. The compound also displayed an IC50 in data set [14] greater than 100 µM. In [17], this compound gave an IC50 greater than 100 µM. This compound also registered an IC50 in [18] of 23.2 ± 1.63 µM. The same compound gave an IC50 in data set [19] greater than 100 µM. In data set [21], this compound displayed an IC50 greater than 100 µM. In data set [23], this compound came in with an IC50 of 15.5 ± 1.06 µM. In data set [26], this compound registered an IC50 greater than 100 µM. The “Selectivity index (S.I.)” value in [26] (ratio of IC50 in AML12 vs IC50 in HepG2 cells) was greater than 6.46.
As to bruceacanthinones A, the IC50 in data set [28] was 196 µM.

The values above are taken from PMC9930359, “Cytotoxicity of the methanol extracts and compounds of Brucea antidysenterica (Simaroubaceae) towards multifactorial drug-resistant human cancer cell lines” (BMC Complementary Medicine and Therapies, 2023).
